Converted amounts (≈) assume the structure as drawn.

As a reminder, the MIC is the least concentration at which growth counts as inhibited.

Holding throughout (type): functional
Experiment [1] has as its system Staphylococcus aureus. The experiment can be described thus: Antimicrobial activity against Staphylococcus aureus ATCC 29213 by CLSI-based broth microdilution method. The conditions noted are these: Staphylococcus aureus, ATCC 29213; read-out: MIC. (In general: Broth dilution looks for growth in wells or tubes with falling amounts of substance.)
A further experiment deals with Pseudomonas aeruginosa. The experiment in a line: Antimicrobial activity against Pseudomonas aeruginosa PAO1 by CLSI-based broth microdilution method.
In another experiment the test system is Escherichia coli. The experiment in a line: Antimicrobial activity against tolC deficient Escherichia coli KD65 by CLSI-based broth microdilution method. The conditions noted are these: Escherichia coli, KD65; read-out: MIC.
The subject of experiment [2] is Staphylococcus aureus. The experiment can be described thus: Antimicrobial activity against methicillin-resistant Staphylococcus aureus ATCC 33591 incubated for 18 to 24 hrs by two-fold serial dilution method.
A further experiment has as its system Enterococcus faecium. The experiment in a line: Antimicrobial activity against Enterococcus faecium ATCC 700221 incubated for 18 to 24 hrs by two-fold serial dilution method.
Experiment [3] deals with Staphylococcus aureus. The experiment can be described thus: Antimicrobial activity against methicillin-susceptible Staphylococcus aureus ATCC 29213 incubated for 18 to 24 hrs by two-fold serial dilution method.
In experiment [4] the test system is Mycobacterium tuberculosis. The experiment can be described thus: Antimicrobial activity against Mycobacterium tuberculosis H37Rv ATCC 27294 incubated for 7 days by microplate Alamar blue assay. The conditions noted are these: H37Rv ATCC 27294, 168 h. (In general: The colour change of resazurin is a common sign of viable cells or microbes.)
The subject of experiment [5] is Staphylococcus epidermidis. The experiment in a line: Antimicrobial activity against methicillin-susceptible Staphylococcus epidermidis ATCC 12228 incubated for 18 to 24 hrs by two-fold serial dilution method.

Consider `N[C@H]1CCN2c3c(F)cc4c(=O)c(C(=O)O)cn(C5CC5)c4c3COC[C@H]12`, for which the MIC is 0.0082 µg/mL (≈ 0.022 µM) in the experiment with Staphylococcus aureus [1], 0.25 µg/mL (≈ 0.67 µM) against Pseudomonas aeruginosa and 0.002 µg/mL (≈ 0.00536 µM) with Escherichia coli.
The corresponding values for `N[C@H]1C[C@@H]2CCCc3c(c(F)cc4c(=O)c(C(=O)O)cn(C5CC5)c34)N2C1` are 0.038 µg/mL (≈ 0.102 µM), 0.45 µg/mL (≈ 1.21 µM) and 0.006 µg/mL (≈ 0.0162 µM).
On the same counts, the results for `O=C(O)c1cn(C2CC2)c2c3c(c(F)cc2c1=O)N1CCCC1COC3` (centres undefined) are 0.5 µg/mL (≈ 1.4 µM), above 64 µg/mL and 1 µg/mL (≈ 2.79 µM).
On the same counts, the results for `N[C@H]1CCN2c3c(F)cc4c(=O)c(C(=O)O)cn(C5CC5)c4c3C=NC[C@H]12` are 2 µg/mL (≈ 5.4 µM), 0.5 µg/mL (≈ 1.35 µM) and at most 0.06 µg/mL.
For the molecule `COc1c(N2CCN(C/C(C)=N/NC(=O)c3ccc([N+](=O)[O-])cc3)CC2)c(F)cc2c(=O)c(C(=O)O)cn(C3CC3)c12`, the MIC in the experiment on Staphylococcus aureus [2] is 0.25 µg/mL (≈ 0.431 µM); in the experiment on Enterococcus faecium it was 128 µg/mL (≈ 220 µM); in the experiment on Staphylococcus aureus [3] it was 0.25 µg/mL (≈ 0.431 µM); in experiment [4], 0.294 µM (≈ 0.171 µg/mL); in experiment [5], 0.125 µg/mL (≈ 0.215 µM).
As for `O=C(O)c1cn(C2CC2)c2c3c(c(F)cc2c1=O)N1CCCC1CC=C3` (centres undefined), the MIC in the experiment with Staphylococcus aureus [1] worked out at 0.5 µg/mL (≈ 1.41 µM); against Pseudomonas aeruginosa, 1 µg/mL (≈ 2.82 µM); in the experiment with Escherichia coli, 0.03 µg/mL (≈ 0.0847 µM).
On to `N[C@@H]1CCN2c3c(F)cc4c(=O)c(C(=O)O)cn(C5CC5)c4c3C=NC[C@H]12`, for which the minimum inhibitory concentration (MIC) with Staphylococcus aureus [1] came to 4 µg/mL (≈ 10.8 µM); in the experiment on Pseudomonas aeruginosa, 1 µg/mL (≈ 2.7 µM); with Escherichia coli, 0.125 µg/mL (≈ 0.337 µM).
For the molecule `N[C@H]1C[C@H]2COCc3c(c(F)cc4c(=O)c(C(=O)O)cn(C5CC5)c34)N2C1`, the MIC with Staphylococcus aureus [1] was determined as 0.125 µg/mL (≈ 0.335 µM); against Pseudomonas aeruginosa, 0.38 µg/mL (≈ 1.02 µM); in the experiment with Escherichia coli it was 0.034 µg/mL (≈ 0.0911 µM).
The corresponding values for `CC(=O)N1Cc2c(c(F)cc3c(=O)c(C(=O)O)cn(C4CC4)c23)N2CCCC2C1` (centres undefined) are 0.082 µg/mL (≈ 0.205 µM), above 16 µg/mL and 0.2 µg/mL (≈ 0.501 µM).
The corresponding values for `O=C1CC2CCCN2c2c(F)cc3c(=O)c(C(=O)O)cn(C4CC4)c3c2N1` (centres undefined) are above 64 µg/mL, above 64 µg/mL and 4 µg/mL (≈ 10.8 µM).
Consider `COc1c(N2CCN(C/C(C)=N/NC(=O)c3ccc(Cl)cc3)CC2)c(F)cc2c(=O)c(C(=O)O)cn(C3CC3)c12`, for which the MIC in the experiment on Staphylococcus aureus [2] came to 0.125 µg/mL (≈ 0.219 µM); against Enterococcus faecium it was 32 µg/mL (≈ 56.1 µM); against Staphylococcus aureus [3] it was 0.125 µg/mL (≈ 0.219 µM); in experiment [4], 0.272 µM (≈ 0.155 µg/mL); in experiment [5], 0.125 µg/mL (≈ 0.219 µM).
Take `N[C@@H]1C[C@@H]2CC=Cc3c(c(F)cc4c(=O)c(C(=O)O)cn(C5CC5)c34)N2C1`: the minimal inhibitory concentration (MIC) in the experiment on Staphylococcus aureus [1] turned out to be 0.25 µg/mL (≈ 0.677 µM); against Pseudomonas aeruginosa, 1 µg/mL (≈ 2.71 µM); in the experiment on Escherichia coli, 0.125 µg/mL (≈ 0.338 µM).
`O=C(O)c1cn(C2CC2)c2c(cc(F)c3c2nnn3-c2ccc(F)cc2)c1=O`: the minimal inhibitory concentration (MIC) with Staphylococcus aureus [1] is 0.06 µg/mL (≈ 0.157 µM); against Pseudomonas aeruginosa it was 40 µg/mL (≈ 105 µM); in the experiment on Escherichia coli, 0.25 µg/mL (≈ 0.654 µM).
Turning to `N[C@@H]1C[C@@H]2CCCc3c(c(F)cc4c(=O)c(C(=O)O)cn(C5CC5)c34)N2C1`, the MIC in the experiment with Staphylococcus aureus [1] was determined as 0.25 µg/mL (≈ 0.673 µM); against Pseudomonas aeruginosa it was 1 µg/mL (≈ 2.69 µM); with Escherichia coli, 0.25 µg/mL (≈ 0.673 µM).
Consider `N[C@@H]1CCN2c3c(F)cc4c(=O)c(C(=O)O)cn(C5CC5)c4c3CCC[C@H]12`, for which the MIC was determined as 0.03 µg/mL (≈ 0.0808 µM) in the experiment with Staphylococcus aureus [1], 0.125 µg/mL (≈ 0.337 µM) in the experiment on Pseudomonas aeruginosa and 0.004 µg/mL (≈ 0.0108 µM) with Escherichia coli.
As to `N[C@H]1CCN2c3c(F)cc4c(=O)c(C(=O)O)cn(C5CC5)c4c3CNC[C@H]12`, the results for the MIC in the experiment on Staphylococcus aureus [1], in the experiment with Pseudomonas aeruginosa and with Escherichia coli were 1 µg/mL (≈ 2.69 µM), 0.5 µg/mL (≈ 1.34 µM) and at most 0.06 µg/mL, respectively.
The corresponding values for `N[C@@H]1C[C@H]2CC=Cc3c(c(F)cc4c(=O)c(C(=O)O)cn(C5CC5)c34)N2C1` are 2 µg/mL (≈ 5.41 µM), 32 µg/mL (≈ 86.6 µM) and 2 µg/mL (≈ 5.41 µM).
Take `CN1Cc2c(c(F)cc3c(=O)c(C(=O)O)cn(C4CC4)c23)N2CCCC2C1` (centres undefined): the MIC with Staphylococcus aureus [1] was 32 µg/mL (≈ 86.2 µM); with Pseudomonas aeruginosa, above 64 µg/mL; in the experiment on Escherichia coli it was 2 µg/mL (≈ 5.38 µM).
On the same counts, the results for `C/N=C1/Cc2c(c(F)cc3c(=O)c(C(=O)O)cn(C4CC4)c23)N2CCCC2C1` (centres undefined) are 0.25 µg/mL (≈ 0.652 µM), above 32 µg/mL and 0.06 µg/mL (≈ 0.156 µM).
The corresponding values for `N[C@@H]1CCN2c3c(F)cc4c(=O)c(C(=O)O)cn(C5CC5)c4c3C=CC[C@H]12` are 0.045 µg/mL (≈ 0.122 µM), 0.38 µg/mL (≈ 1.03 µM) and 0.06 µg/mL (≈ 0.162 µM).

The values are drawn from ChEMBL document CHEMBL4602605, “Fluoroquinolones structural and medicinal developments (2013-2018): Where are we now?” (Bioorg Med Chem, 2019).
